Data published in US9567345B2, “Pharmaceutically active pyrazolo-triazine derivatives” (LEAD DISCOVERY CENTER GMBH, priority 2012, dated 2017).

How the values were obtained:
Assay type in all cases: biochemical
[1] = target: T1, CDK2/CycA (Homo sapiens, UniProt P24941); experiment: CDK2 Enzymatic Activity Assay (Lance Kinase Activity Assay, FRET); details: Table 5B, class symbols per IC50 [nM] ranges of b581; read-out: CDK2: Selectivity of CDK7 inhibition over CDK2 inhibition
T1 construct: purchased Proqinase
Summary of the method: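 LANCE TR-FRET assay: CDK2/CycA phosphorylated ULight-MBP peptide in HEPES 50 mM pH 7.5 buffer with MgCl2, EGTA, DTT and Tween-20 for 1 h at room temperature. Eu-anti-phospho-MBP antibody with EDTA was then added for 1 h before reading. IC50 was fitted from 8-point, 1:3 sigmoidal dose-response curves.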

[2] = target: CDK7/CycH/Mat1 (Homo sapiens, UniProt P50613); experiment: CDK7 Enzymatic Activity Assay (Lance Kinase Activity Assay, FRET); details: CDK7/CycH/Mat1, 25 μM ATP final; class ranges; read-out: CDK7: IC50 [nM] for CDK7 inhibition
Chain of CDK7/CycH/Mat1 (P50613 whole entry): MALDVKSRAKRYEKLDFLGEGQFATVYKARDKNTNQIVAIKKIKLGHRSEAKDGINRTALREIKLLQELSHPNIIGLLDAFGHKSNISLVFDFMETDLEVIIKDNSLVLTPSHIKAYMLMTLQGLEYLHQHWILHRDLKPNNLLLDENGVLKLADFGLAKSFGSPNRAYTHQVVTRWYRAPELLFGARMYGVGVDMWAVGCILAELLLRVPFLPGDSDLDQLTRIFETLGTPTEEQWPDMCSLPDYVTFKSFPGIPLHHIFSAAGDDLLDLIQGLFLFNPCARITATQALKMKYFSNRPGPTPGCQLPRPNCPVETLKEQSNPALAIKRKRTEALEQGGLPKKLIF
Summary of the method: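 Ulight-MBP peptide phosphorylation by CDK7/CycH/Mat1 in HEPES 50 mM pH 7.5, MgCl2, EGTA, DTT, Tween-20; 1 h at room temperature, then EDTA stop with Eu-anti-phospho-MBP antibody for 1 h and TR-FRET read. Compounds in 8-point 1:3 DMSO series; IC50 from sigmoidal dose-response fit.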

[3] = target: CDK9/Cyclin T1 (Homo sapiens, UniProt P50750); experiment: CDK9 Enzymatic Activity Assay (Lance Kinase Activity Assay, FRET); details: Table 5B, class symbols per IC50 [nM] ranges of b581; read-out: CDK9: Selectivity of CDK7 inhibition over CDK9 inhibition
Chain of CDK9/Cyclin T1 (P50750 whole entry): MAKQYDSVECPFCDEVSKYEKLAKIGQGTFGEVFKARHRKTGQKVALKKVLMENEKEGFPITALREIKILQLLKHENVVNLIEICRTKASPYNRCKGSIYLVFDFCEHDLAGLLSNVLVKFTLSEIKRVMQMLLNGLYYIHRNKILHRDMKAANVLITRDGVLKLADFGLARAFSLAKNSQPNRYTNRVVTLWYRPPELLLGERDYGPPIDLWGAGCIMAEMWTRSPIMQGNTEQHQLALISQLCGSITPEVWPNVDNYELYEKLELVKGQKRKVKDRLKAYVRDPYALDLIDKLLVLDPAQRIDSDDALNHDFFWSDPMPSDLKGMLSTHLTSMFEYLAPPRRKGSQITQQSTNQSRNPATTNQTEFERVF
Chain of CDK9/Cyclin T1 (O60563 whole entry partner): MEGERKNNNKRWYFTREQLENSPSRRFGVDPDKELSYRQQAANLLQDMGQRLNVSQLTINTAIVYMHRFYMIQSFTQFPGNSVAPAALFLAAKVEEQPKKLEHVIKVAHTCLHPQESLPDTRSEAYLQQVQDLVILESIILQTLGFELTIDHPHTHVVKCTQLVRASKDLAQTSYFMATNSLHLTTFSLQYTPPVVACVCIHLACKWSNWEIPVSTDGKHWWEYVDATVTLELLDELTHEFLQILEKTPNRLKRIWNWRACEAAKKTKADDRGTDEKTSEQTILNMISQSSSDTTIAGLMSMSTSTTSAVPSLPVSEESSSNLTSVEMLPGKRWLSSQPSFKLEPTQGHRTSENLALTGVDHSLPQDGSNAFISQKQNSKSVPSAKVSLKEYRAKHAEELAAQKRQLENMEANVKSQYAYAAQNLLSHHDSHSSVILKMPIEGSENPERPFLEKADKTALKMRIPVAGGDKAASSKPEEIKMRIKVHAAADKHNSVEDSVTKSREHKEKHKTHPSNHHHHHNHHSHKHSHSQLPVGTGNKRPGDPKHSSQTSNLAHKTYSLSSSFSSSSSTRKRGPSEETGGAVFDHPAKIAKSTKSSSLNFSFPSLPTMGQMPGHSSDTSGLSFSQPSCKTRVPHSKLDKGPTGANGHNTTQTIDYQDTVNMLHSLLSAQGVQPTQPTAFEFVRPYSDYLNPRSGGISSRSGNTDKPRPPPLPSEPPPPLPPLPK
Summary of the method: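 CDK9/cyclin T1 phosphorylation of a ULight-MBP peptide was run for 1 h at room temperature in pH 7.5 HEPES buffer with MgCl2, EGTA, DTT and Tween-20. It was followed by 1 h with Eu-anti-phospho-MBP antibody (4 nM) in EDTA detection buffer. TR-FRET loss gave IC50 from 8-point, 1:3 sigmoidal dose-response curves.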

Row | SMILES | IC50 [1] | IC50 [2] | IC50 [3]
1 | CC(C)c1cnn2c(NCc3ccccc3-c3ccccc3)nc(O[C@@H]3CCNC3)nc12 [(VII-08), (R)-N-([1,1′-biphenyl]-2-ylmethyl)-8-isopropyl-2-(pyrrolidin-3-yloxy)pyrazolo[1,5-a][1,3,5]triazin-4-amine] | 500 to 2500 nM | 5 to 10 nM | 500 to 2500 nM
2 | CC(C)c1cnn2c(NCc3ccccc3-n3cccn3)nc(CN(C)CCN3CCCC3)nc12 [(XXX-3), N-(2-(1H-pyrazol-1-yl)benzyl)-8-isopropyl-2-((methyl(2-(pyrrolidin-1-yl)ethyl)amino)methyl)pyrazolo[1,5-a][1,3,5]triazin-4-amine] | > 2500 nM | > 25 nM | > 2500 nM
3 | CC(C)c1cnn2c(NCc3ccccc3-c3cccs3)nc(O[C@@H]3CCNC3)nc12 [(VII-13), (R)-8-isopropyl-2-(pyrrolidin-3-yloxy)-N-(2-(thiophen-2-yl)benzyl)pyrazolo[1,5-a][1,3,5]triazin-4-amine] | 50 to 500 nM | < 5 nM | 500 to 2500 nM
4 | CC(C)c1cnn2c(NCc3ccccc3-n3cc(Cl)cn3)nc(O[C@@H]3CCCNC3)nc12 [(VII-52), (R)-N-(2-(4-chloro-1H-pyrazol-1-yl)benzyl)-8-isopropyl-2-(piperidin-3-yloxy)pyrazolo[1,5-a][1,3,5]triazin-4-amine] | 50 to 500 nM | < 5 nM | 50 to 500 nM
5 | CC(C)c1cnn2c(NCc3cccc4cc[n+]([O-])cc34)nc(O[C@@H]3CCCNC3)nc12 [(VII-32), (R)-8-(((8-isopropyl-2-(piperidin-3-yloxy)pyrazolo[1,5-a][1,3,5]triazin-4-yl)amino)methyl)isoquinoline 2-oxide] | 50 to 500 nM | < 5 nM | 50 to 500 nM
6 | CC(C)c1cnn2c(NCc3ccccc3-n3cccn3)nc(C(=O)N(C)CCN3CCCC3)nc12 [(XII-8), 4-((2-(1H-pyrazol-1-yl)benzyl)amino)-8-isopropyl-N-methyl-N-(2-(pyrrolidin-1-yl)ethyl)pyrazolo[1,5-a][1,3,5]triazine-2-carboxamide] | > 2500 nM | > 25 nM | > 2500 nM
7 | CC(C)c1cnn2c(NCc3ccccc3[S+](C)[O-])nc(O[C@@H]3CCCNC3)nc12 (stereo partly drawn) [(VII-152), 8-isopropyl-N-(2-(methylsulfinyl)benzyl)-2-((R)-piperidin-3-yloxy)pyrazolo[1,5-a][1,3,5]triazin-4-amine] | 50 to 500 nM | 10 to 25 nM | 500 to 2500 nM
8 | CC(C)c1cnn2c(NCc3cccc(F)c3-n3cccn3)nc(O[C@@H]3CCCNC3)nc12 [(VII-42), (R)-N-(3-fluoro-2-(1H-pyrazol-1-yl)benzyl)-8-isopropyl-2-(piperidin-3-yloxy)pyrazolo[1,5-a][1,3,5]triazin-4-amine] | < 50 nM | < 5 nM | 50 to 500 nM
9 | CC(C)c1cnn2c(NCc3ccccc3-n3cccn3)nc(C(=O)N3CC4(CNC4)C3)nc12 [(XII-07), (4-((2-(1H-pyrazol-1-yl)benzyl)amino)-8-isopropylpyrazolo[1,5-a][1,3,5]triazin-2-yl)(2,6-diazaspiro[3.3]heptan-2-yl)methanone] | > 2500 nM | > 25 nM | > 2500 nM
10 | CC(C)c1cnn2c(NCc3cccc4c3ccc[n+]4[O-])nc(O[C@@H]3CCCNC3)nc12 [(VII-30), (R)-5-(((8-isopropyl-2-(piperidin-3-yloxy)pyrazolo[1,5-a][1,3,5]triazin-4-yl)amino)methyl)quinoline 1-oxide] | 500 to 2500 nM | < 5 nM | < 50 nM
11 | CC(C)c1cnn2c(NCc3ccccc3-n3cccn3)nc(N3CCC4(CCCCN4)CC3)nc12 [(VIII-23), N-(2-(1H-pyrazol-1-yl)benzyl)-8-isopropyl-2-(1,9-diazaspiro[5.5]undecan-9-yl)pyrazolo[1,5-a][1,3,5]triazin-4-amine] | 500 to 2500 nM | < 5 nM | 500 to 2500 nM
12 | CC(C)c1cnn2c(NCc3ccccc3-c3cccs3)nc([S+]([O-])C3CCNCC3)nc12 (stereo not drawn) [(X-2), 8-isopropyl-2-(piperidin-4-ylsulfinyl)-N-(2-(thiophen-2-yl)benzyl)pyrazolo[1,5-a][1,3,5]triazin-4-amine] | 50 to 500 nM | < 5 nM | 50 to 500 nM
13 | CC(C)c1cnn2c(NCc3ccccc3Oc3ccccn3)nc(O[C@@H]3CCCNC3)nc12 [(VII-098), (R)-8-isopropyl-2-(piperidin-3-yloxy)-N-(2-(pyridin-2-yloxy)benzyl)pyrazolo[1,5-a][1,3,5]triazin-4-amine] | 500 to 2500 nM | 10 to 25 nM | > 2500 nM
14 | CC(C)c1cnn2c(NCc3ccccc3-n3cccn3)nc(OC3COC4(CCNCC4)C3)nc12 (stereo not drawn) [(VII-121), 2-(1-oxa-8-azaspiro[4.5]decan-3-yloxy)-N-(2-(1H-pyrazol-1-yl)benzyl)-8-isopropylpyrazolo[1,5-a][1,3,5]triazin-4-amine] | > 2500 nM | < 5 nM | > 2500 nM
15 | CC(C)c1cnn2c(NCc3ccccc3-n3cncn3)nc(OC3CCN(C)CC3)nc12 [(VII-74), N-(2-(1H-1,2,4-triazol-1-yl)benzyl)-8-isopropyl-2-((1-methylpiperidin-4-yl)oxy)pyrazolo[1,5-a][1,3,5]triazin-4-amine] | 50 to 500 nM | < 5 nM | > 2500 nM
16 | CC(C)c1cnn2c(NCc3ccccc3C(N)=O)nc(O[C@@H]3CCCNC3)nc12 [(VII-096), (R)-2-(((8-isopropyl-2-(piperidin-3-yloxy)pyrazolo[1,5-a][1,3,5]triazin-4-yl)amino)methyl)benzamide] | 50 to 500 nM | < 5 nM | 500 to 2500 nM
17 | CC(C)c1cnn2c(NCc3ccccc3-n3cccn3)nc(CN(C)CCCN3CCCCC3)nc12 [(XXX-6), N-(2-(1H-pyrazol-1-yl)benzyl)-8-isopropyl-2-((methyl(3-(piperidin-1-yl)propyl)amino)methyl)pyrazolo[1,5-a][1,3,5]triazin-4-amine] | > 2500 nM | > 25 nM | > 2500 nM
18 | CC(C)c1cnn2c(NCc3ccccc3-n3cccn3)nc(N(C)CCCN3CCCCC3)nc12 [(VIII-049), N4-(2-(1H-pyrazol-1-yl)benzyl)-8-isopropyl-N2-methyl-N2-(3-(piperidin-1-yl)propyl)pyrazolo[1,5-a][1,3,5]triazine-2,4-diamine] | > 2500 nM | > 25 nM | > 2500 nM
19 | CC(C)c1cnn2c(NCc3ccccc3-n3cncn3)nc([S+]([O-])C3CCNCC3)nc12 (stereo not drawn) [(X-4), N-(2-(1H-1,2,4-triazol-1-yl)benzyl)-8-isopropyl-2-(piperidin-4-ylsulfinyl)pyrazolo[1,5-a][1,3,5]triazin-4-amine] | 50 to 500 nM | < 5 nM | 500 to 2500 nM
20 | CC(C)c1cnn2c(NCc3ccccc3-n3cccn3)nc(NCC3CCNC3)nc12 (stereo not drawn) [(VIII-052), N4-(2-(1H-pyrazol-1-yl)benzyl)-8-isopropyl-N2-(pyrrolidin-3-ylmethyl)pyrazolo[1,5-a][1,3,5]triazine-2,4-diamine] | > 2500 nM | > 25 nM | > 2500 nM
21 | CC(C)c1cnn2c(NCc3ccccc3OS(=O)C(C)(C)C)nc(O[C@@H]3CCCNC3)nc12 (stereo partly drawn) [(VII-148), 2-(((8-isopropyl-2-((R)-piperidin-3-yloxy)pyrazolo[1,5-a][1,3,5]triazin-4-yl)amino)methyl)phenyl 2-methylpropane-2-sulfinate] | 50 to 500 nM | < 5 nM | 50 to 500 nM
22 | CC(C)c1cnn2c(NCc3ccccc3-n3ccnc3)nc(O[C@@H]3CCCNC3)nc12 [(VII-26), (R)-N-(2-(1H-imidazol-1-yl)benzyl)-8-isopropyl-2-(piperidin-3-yloxy)pyrazolo[1,5-a][1,3,5]triazin-4-amine] | 50 to 500 nM | < 5 nM | 50 to 500 nM
23 | CC(C)c1cnn2c(NCc3ccccc3OC(F)F)nc(OC3CCN(C)CC3)nc12 [(VII-72), N-(2-(difluoromethoxy)benzyl)-8-isopropyl-2-((1-methylpiperidin-4-yl)oxy)pyrazolo[1,5-a][1,3,5]triazin-4-amine] | 50 to 500 nM | < 5 nM | 50 to 500 nM
24 | CC(C)c1cnn2c(NCc3ccccc3-n3cccn3)nc(C(=O)NCCCCN)nc12 [(XII-5), 4-((2-(1H-pyrazol-1-yl)benzyl)amino)-N-(4-aminobutyl)-8-isopropylpyrazolo[1,5-a][1,3,5]triazine-2-carboxamide] | > 2500 nM | < 5 nM | > 2500 nM
25 | CC(C)c1cnn2c(NCc3ccccc3-c3cccs3)nc(OC3CCN(C)CC3)nc12 [(VII-65), 8-isopropyl-2-((1-methylpiperidin-4-yl)oxy)-N-(2-(thiophen-2-yl)benzyl)pyrazolo[1,5-a][1,3,5]triazin-4-amine] | 50 to 500 nM | < 5 nM | > 2500 nM
26 | CC(C)c1cnn2c(NCc3c(F)cccc3-n3cccn3)nc(O[C@@H]3CCCNC3)nc12 [(VII-44), (R)-N-(2-fluoro-6-(1H-pyrazol-1-yl)benzyl)-8-isopropyl-2-(piperidin-3-yloxy)pyrazolo[1,5-a][1,3,5]triazin-4-amine] | 50 to 500 nM | < 5 nM | > 2500 nM
